# Test results from patent US8853230B2, “Inhibitors of JAK” (Portola Pharmaceuticals, Inc., priority 2009, dated 2014).
# How the values were obtained:
# Type in all cases: biochemical
# JAK2 = target: T1, JAK2 (Homo sapiens, UniProt O60674); test: Z'-LYTE kinase assay, JAK2 tyrosine phosphorylation activity
# T1 construct: 5 μl of catalytic domain recombinant Kinase enzyme+Tyr peptide substrate (Invitrogen, Calif.); purchased Invitrogen
# Description: (§1) JAK and TYK2 tyrosine phosphorylation activity is measured using the Z′-LYTE™ Technology developed by Invitrogen Corporation (Carlsbad, Calif.). For JAK1, JAK2 and JAK3 the Z′-LYTE™ Kinase Assay Kit-Tyr6 Peptide (part number PV4122) was used. For TYK2 the Z′-LYTE™ Kinase Assay Kit-Tyr6 Peptide (part number PV3192) was used. The Z′-LYTE™ biochemical assay employs a fluorescence resonance energy transfer (FRET) coupled-enzyme format and is based on the differential sensitivity of phosphorylated and non-phosphorylated peptides to proteolitic cleavage. The assay uses a synthetic peptide substrate that is labelled with a donor fluorophore (coumarin) and an acceptor fluorophore (fluorescein) that make up a FRET pair. In the primary reaction (the Kinase Reaction), the kinase transfers the γ-phosphate of ATP to a single tyrosine residue on the substrate, while the presence of a kinase inhibitor in the primary reaction suppresses phosphorylation. In the secondary reaction (the Development Reaction), a site-specific protease (the Development Reagent) is added. The development buffer quenches the Kinase Reaction, while the protease recognizes and cleaves non-phosphorylated Z′-LYTE™ peptide substrate. Cleavage disrupts FRET between the donor and acceptor fluorophores on the non-phosphoryleted substrate, while uncleaved, phosphorylated substrate maintains FRET.
# (§2) To test the ability of candidate molecules to inhibit JAK tyrosine phosphorylation activity, molecules are reconstituted in 100% DMSO and serially diluted 1:10 in polypropylene v-bottom microtiter plates. The candidate molecules are then diluted 1:25 into kinase buffer and 2.5 μl transferred into duplicate wells of a 384 well low volume black microtiter assay plate (Corning, USA). The final DMSO concentration in the assay is 1%. The kinase reaction contains 2.5 μl of a candidate molecule, 5 μl of catalytic domain recombinant Kinase enzyme+Tyr peptide substrate (Invitrogen, Calif.) and 2.5 μl ATP (Invitrogen, Calif.). The kinase reaction is allowed to procede for 1 hour at room temperature. The protease reaction is initiated by the addition of 5 μl Development Reagent (Invitrogen, Calif.). After 1 hour incubation at room temperature the fluorescence is measured using a FlexStation plate reader (Molecular Devices, Sunnyvale, Calif.). The reader settings used are as follows: Fluorescence mode, endpoint, top read, excitation 400 nm, emission 445 nm and 520 nm, Auto Cutoff 435 nm and 515 nm, PMT sensitivity high, 6 reads per well. Inhibition of JAK activity is calculated as the percent phosphorylation of substrate in the presence of inhibitor compared to the percent phosphorylation of substrate in the absence of inhibitor. IC50's were derived using Xlfit 4.3 (IDBS, UK), 4 parameter logistic model 205: Y=(A+((B−A)/(1+((C/x)^D)))).
# TYK2 = target: T2, TYK2 (Homo sapiens, UniProt P29597); test: Z'-LYTE kinase assay, TYK2 tyrosine phosphorylation activity
# T2 construct: 5 μl of catalytic domain recombinant Kinase enzyme+Tyr peptide substrate (Invitrogen, Calif.); purchased Invitrogen
# T2 sequence (P29597 897-1176 limits assumed): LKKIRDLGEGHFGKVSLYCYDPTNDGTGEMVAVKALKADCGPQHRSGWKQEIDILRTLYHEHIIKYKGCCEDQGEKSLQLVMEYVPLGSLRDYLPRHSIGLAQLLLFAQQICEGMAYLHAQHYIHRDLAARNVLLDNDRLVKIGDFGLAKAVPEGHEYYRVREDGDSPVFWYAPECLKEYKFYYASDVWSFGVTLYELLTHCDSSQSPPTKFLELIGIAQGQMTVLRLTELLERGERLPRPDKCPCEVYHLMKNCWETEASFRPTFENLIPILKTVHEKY
# Description: as §1, §2
# JAK1 = target: T3, JAK1 (Homo sapiens, UniProt P23458); test: Z'-LYTE kinase assay, JAK1 tyrosine phosphorylation activity; conditions: read-out: JAK 1 IC50
# T3 construct: 5 μl of catalytic domain recombinant Kinase enzyme+Tyr peptide substrate (Invitrogen, Calif.); purchased Invitrogen
# Description: as §1, §2
# JAK3 = target: T4, JAK3 (Homo sapiens, UniProt P52333); test: Z'-LYTE kinase assay, JAK3 tyrosine phosphorylation activity
# T4 construct: 5 μl of catalytic domain recombinant Kinase enzyme+Tyr peptide substrate (Invitrogen, Calif.); purchased Invitrogen
# Description: as §1, §2
# T3 sequence (P23458 875-1153 limits assumed): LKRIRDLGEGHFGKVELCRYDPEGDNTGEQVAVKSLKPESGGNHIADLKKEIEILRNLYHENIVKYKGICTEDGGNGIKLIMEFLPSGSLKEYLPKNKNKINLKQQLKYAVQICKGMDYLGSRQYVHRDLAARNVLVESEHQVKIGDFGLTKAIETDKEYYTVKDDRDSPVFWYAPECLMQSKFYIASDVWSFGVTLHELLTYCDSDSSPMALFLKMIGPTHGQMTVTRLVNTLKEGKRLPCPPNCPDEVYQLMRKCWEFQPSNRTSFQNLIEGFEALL
# T1 sequence (O60674 849-1124 limits assumed): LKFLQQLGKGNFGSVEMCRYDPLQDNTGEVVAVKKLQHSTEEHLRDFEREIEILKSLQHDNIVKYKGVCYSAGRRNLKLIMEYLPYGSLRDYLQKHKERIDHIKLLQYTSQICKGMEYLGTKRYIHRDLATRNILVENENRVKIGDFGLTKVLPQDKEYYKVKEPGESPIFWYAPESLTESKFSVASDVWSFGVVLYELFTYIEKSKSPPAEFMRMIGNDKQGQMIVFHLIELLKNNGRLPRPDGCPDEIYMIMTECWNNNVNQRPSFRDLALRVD
# T4 sequence (P52333 822-1111 limits assumed): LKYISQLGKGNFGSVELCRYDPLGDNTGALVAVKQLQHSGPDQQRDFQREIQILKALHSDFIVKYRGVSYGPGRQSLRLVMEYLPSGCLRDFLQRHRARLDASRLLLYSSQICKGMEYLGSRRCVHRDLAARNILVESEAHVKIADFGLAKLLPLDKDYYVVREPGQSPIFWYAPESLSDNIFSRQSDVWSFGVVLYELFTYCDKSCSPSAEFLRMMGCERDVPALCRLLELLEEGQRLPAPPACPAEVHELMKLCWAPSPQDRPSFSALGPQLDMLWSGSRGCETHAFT
SMILES,IC50 (JAK2) [nM],IC50 (TYK2) [nM],IC50 (JAK1) [nM],IC50 (JAK3) [nM]
"CC(=O)Nc1cccc(Nc2ncc(C(N)=O)c(NCC3CCCN(S(C)(=O)=O)C3)n2)c1 (stereo not shown) [Example 120, 2-(3-acetamidophenylamino)-4-((1-(methylsulfonyl)piperidin-3-yl)methylamino)pyrimidine-5-carboxamide]",10 to 100,10 to 100,10 to 100,1 to 10
"CC(=O)Nc1cccc(Nc2ncc(C(N)=O)c(NCc3ccc(F)cc3)n2)c1 [Example 103, 2-(3-acetamidophenylamino)-4-(4-fluorobenzylamino)pyrimidine-5-carboxamide]",10 to 100,10 to 100,100 to 1000,10 to 100
"CC(=O)N(C)c1cccc(Nc2ncc(C(N)=O)c(NCC3CC3)n2)c1 [Example 126, 4-(cyclopropylmethylamino)-2-(3-(N-methylacetamido)phenylamino)pyrimidine-5-carboxamide]",10 to 100,10 to 100,10 to 100,10 to 100
"CNC(=O)Nc1cc(Nc2ncc(C(N)=O)c(NC3CCCC3)n2)ccc1Cl [Example 166, 2-(4-chloro-3-(3-methylureido)phenylamino)-4-(cyclopentylamino)pyrimidine-5-carboxamide]",10 to 100,10 to 100,10 to 100,10 to 100
"C[C@@H](Nc1nc(Nc2cccc(NC(=O)N3CCCC3)c2)ncc1C(N)=O)c1ccccc1 [Example 105, (R)-4-(1-phenylethylamino)-2-(3-(pyrrolidine-1-carboxamido)phenylamino)pyrimidine-5-carboxamide]",10 to 100,10 to 100,100 to 1000,1 to 10
"CNC(=O)c1cnc(Nc2cccc(NC(=O)COC)c2)nc1NCc1ccccc1 [Example 113, 4-(benzylamino)-2-(3-(2-methoxyacetamido)phenylamino)-N-methylpyrimidine-5-carboxamide]",> 1000,100 to 1000,> 1000,100 to 1000
"CC(=O)Nc1cccc(Nc2ncc(C(N)=O)c(NCc3cccc(F)c3)n2)c1 [Example 94, 2-(3-acetamidophenylamino)-4-(3-fluorobenzylamino)pyrimidine-5-carboxamide]",10 to 100,10 to 100,10 to 100,1 to 10
"NC(=O)c1cnc(Nc2cccc(NC(=O)N3CCCC3)c2)nc1NCC1CC1 [Example 123, 4-(cyclopropylmethylamino)-2-(3-(pyrrolidine-1-carboxamido)phenylamino)pyrimidine-5-carboxamide]",10 to 100,1 to 10,10 to 100,1 to 10
"COCC(=O)N(c1cccc(Nc2ncc(C(N)=O)c(NCc3ccccc3)n2)c1)C1CC1 [Example 150, 4-(benzylamino)-2-(3-(N-cyclopropyl-2-methoxyacetamido)phenylamino)pyrimidine-5-carboxamide]",> 1000,100 to 1000,> 1000,100 to 1000
CC[C@H](C)Nc1nc(Nc2cccc(NC(=O)N3CCCC3)c2)ncc1C(N)=O [Example 145],10 to 100,10 to 100,10 to 100,1 to 10
"CNC(=O)c1cnc(Nc2cccc(NC(C)=O)c2)nc1NCc1ccccc1 [Example 112, 2-(3-acetamidophenylamino)-4-(benzylamino)-N-methylpyrimidine-5-carboxamide]",> 1000,> 1000,> 1000,> 1000
"C[C@@H](Nc1nc(Nc2cccc(N(C)C(=O)N3CCCC3)c2)ncc1C(N)=O)c1ccccc1 [Example 122, (R)-2-(3-(N-methylpyrrolidine-1-carboxamido)phenylamino)-4-(1-phenylethylamino)pyrimidine-5-carboxamide]",10 to 100,100 to 1000,100 to 1000,1 to 10

# More lines, now with the values ahead:
IC50 (JAK2) [nM],IC50 (TYK2) [nM],IC50 (JAK1) [nM],IC50 (JAK3) [nM],SMILES
1 to 10,< 1,1 to 10,< 1,"CC(=O)Nc1cccc(Nc2ncc(C(N)=O)c(N[C@H](C)C(C)C)n2)c1 [Example 252, (R)-2-(3-acetamidophenylamino)-4-(3-methylbutan-2-ylamino)pyrimidine-5-carboxamide]"
1 to 10,1 to 10,10 to 100,1 to 10,CC(=O)Nc1cc(Nc2ncc(C(N)=O)c(Nc3cccc4nsnc34)n2)ccc1OCCCN1CCCCC1 [Example 243]
100 to 1000,100 to 1000,> 1000,100 to 1000,"CC(=O)Nc1cccc(Nc2cc(NCC3CC3)c(C(N)=O)cn2)c1 [Example 329, 6-(3-acetamidophenylamino)-4-(cyclopropylmethylamino)nicotinamide]"
10 to 100,10 to 100,10 to 100,1 to 10,"CC(=O)Nc1cccc(Nc2ncc(C(N)=O)c(Nc3cccc4c3cnn4C)n2)c1 [Example 191, 2-(3-acetamidophenylamino)-4-(1-methyl-1H-indazol-4-ylamino)pyrimidine-5-carboxamide]"
100 to 1000,10 to 100,10 to 100,1 to 10,CCC(C)CNc1nc(Nc2ccc(Cl)c(NC(=O)N3CCCC3)c2)ncc1C(N)=O (stereo not shown) [Example 250]
10 to 100,> 1000,> 1000,10 to 100,"CC(=O)Nc1cccc(Nc2ncc(C(N)=O)c(Nc3cccc4nn(C)cc34)n2)c1 [Example 186, 2-(3-acetamidophenylamino)-4-(2-methyl-2H-indazol-4-ylamino)pyrimidine-5-carboxamide]"
10 to 100,10 to 100,100 to 1000,10 to 100,"COc1ccc(Nc2ncc(C(N)=O)c(NCc3ccccc3)n2)cc1N(C)C(=O)N1CCCC1 [Example 239, 4-(benzylamino)-2-(4-methoxy-3-(N-methylpyrrolidine-1-carboxamido)phenylamino)pyrimidine-5-carboxamide]"
> 1000,100 to 1000,> 1000,10 to 100,"CNC(=O)Nc1ccc(F)c(Nc2ncc(C(N)=O)c(NCc3ccccc3)n2)c1 [Example 200, 4-(benzylamino)-2-(2-fluoro-5-(3-methylureido)phenylamino)pyrimidine-5-carboxamide]"
10 to 100,10 to 100,10 to 100,1 to 10,C[C@@H](Nc1nc(Nc2cccc(NC(=O)N3CCC(O)CC3)c2)ncc1C(N)=O)c1ccccc1 [Example 215]
100 to 1000,100 to 1000,100 to 1000,1 to 10,"CC(=O)Nc1cccc(Nc2cc(NCc3cccc(F)c3F)c(C(N)=O)cn2)c1 [Example 336, 6-(3-acetamidophenylamino)-4-(2,3-difluorobenzylamino)nicotinamide]"
100 to 1000,10 to 100,100 to 1000,10 to 100,"CC(=O)Nc1cccc(Nc2ncc(C(N)=O)c(NCc3ccncc3)n2)c1 [Example 189, 2-(3-acetamidophenylamino)-4-(pyridin-4-ylmethylamino)pyrimidine-5-carboxamide]"
1 to 10,1 to 10,1 to 10,< 1,"CC[C@@H](C)Nc1nc(Nc2cccc(NC(C)=O)c2)ncc1C(N)=O [Example 238, (R)-2-(3-acetamidophenylamino)-4-(sec-butylamino)pyrimidine-5-carboxamide]"
1 to 10,10 to 100,10 to 100,1 to 10,"CC(=O)Nc1cc(Nc2ncc(C(N)=O)c(Nc3cccc4nsnc34)n2)ccc1OCCN(C)C [Example 230, 2-(3-acetamido-4-(2-(dimethylamino)ethoxy)phenylamino)-4-(benzo[c][1,2,5]thiadiazo-4-ylamino)pyrimidine-5-carboxamide]"
